For data set [1], the target named is T1, human GLP-1 receptor (hGLP-1 R) (Homo sapiens, UniProt P43220).
T1 construct: expressed in transfected cells; host or cells: HEK-293
Put plainly: cAMP response (HTRF) of HEK-293 cells stably expressing human GLP-1 receptor. The following applies: Table 4. It counts as cell-based. An outline of the steps: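 Detached HEK-293 cells were suspended in HBSS with 20 mM HEPES, 0.1% BSA and 2 mM IBMX, then exposed to compound for 30 min at room temperature. cAMP was read by HTRF (665/620 nm ratio) after 1 h with detection reagents in lysis buffer. EC50 is the concentration giving 50% of maximal activation.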
Background: Time-resolved FRET reads energy transfer from a long-lived donor to a nearby acceptor.

The test system of another data set is hepatic glycogenolysis. Put plainly: Blood glucose profile in anesthetized rats. It counts as in vivo, male Wistar rats.
The subject of the next data set is blood glucose. Put plainly: Blood glucose profile in normoglycemic Beagle dogs. It counts as in vivo, male normoglycemic Beagle dogs.
Data set [2] can be described thus: Solubility testing of exendin-4 derivatives (HPLC-UV of supernatant). The following applies: pH 7.4. Format: physicochemical. How it is done:
Prior to the testing of solubility and stability of a peptide batch, its content was determined. Therefore, two parameters were investigated, its purity (HPLC-UV) and the amount of salt load of the batch (ion chromatography).
HPLC-UV was performed after 2 h of gentle agitation from the supernatant, which was obtained by 20 min of centrifugation at 4000 rpm.

These results are taken from US9932381B2, “Exendin-4 derivatives as selective glucagon receptor agonists” (priority 2014, dated 2018).

The EC50 is the concentration needed to bring the measured effect to its halfway point. In general, solubility refers to how much of the substance goes into solution per volume. Read a high solubility as a readily soluble substance.

Bounds are passed on as bounds.

T1 sequence (P43220 24-463): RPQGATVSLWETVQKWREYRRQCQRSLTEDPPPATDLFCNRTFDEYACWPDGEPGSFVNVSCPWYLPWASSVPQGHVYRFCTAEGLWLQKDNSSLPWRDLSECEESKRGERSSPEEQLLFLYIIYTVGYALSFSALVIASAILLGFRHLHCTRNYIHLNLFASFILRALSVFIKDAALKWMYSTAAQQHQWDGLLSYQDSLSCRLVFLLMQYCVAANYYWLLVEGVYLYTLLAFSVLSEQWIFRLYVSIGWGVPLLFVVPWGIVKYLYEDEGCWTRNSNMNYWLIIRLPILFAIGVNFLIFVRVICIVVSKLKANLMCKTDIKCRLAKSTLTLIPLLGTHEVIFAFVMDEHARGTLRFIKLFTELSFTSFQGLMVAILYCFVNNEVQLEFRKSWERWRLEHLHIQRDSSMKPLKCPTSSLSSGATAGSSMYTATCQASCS
Procedure for hepatic glycogenolysis: The method aimed to study a test compound on the process of hepatic glycogenolysis. The rats had free access to food until the start of the experiment. […] The effect of GCG-mimetic on hepatic glycogenolysis and the subsequent hyperglycemic peak in the blood was compared to the effect obtained with a subcutaneous bolus injection of GCG at a dose of 30 μg/kg.
Rats were anaesthetized with an intraperitoneal injection of pentobarbital sodium (60 mg/kg) and ketamine (10 mg/kg) and tracheotomized. Anesthesia was maintained for up to 5 hours by subcutaneous infusion of pentobarbital sodium (adjusted to the anesthetic depth of the individual animal; about 24 mg/kg/h). Body temperature was monitored with a rectal probe thermometer, and temperature was maintained at 37° C. by means of a heated surgical table. Blood samples for glucose analysis (10 μl) were obtained from the tip of the tail every 15 minutes. The rats were allowed to stabilize their blood glucose levels after surgery for up to 2 hours. Then, GCG as reference compound, or the test compound were administered subcutaneously. For GCG a dose of 30 μg/kg was used to induce hepatic glycogenolysis.

For `CC[C@H](C)[C@H](NC(=O)[C@H](Cc1ccccc1)NC(=O)[C@H](CCC(=O)O)NC(=O)[C@H](CCC(N)=O)NC(=O)[C@H](C)NC(=O)[C@H](CCCNC(=N)N)NC(=O)[C@H](CCCNC(=N)N)NC(=O)[C@H](CO)NC(=O)[C@H](CCC(=O)O)NC(=O)[C@H](CC(C)C)NC(=O)[C@H](CCC(N)=O)NC(=O)[C@H](CCCCN)NC(=O)[C@H](CO)NC(=O)[C@H](Cc1ccc(O)cc1)NC(=O)[C@H](CC(=O)O)NC(=O)[C@H](CO)NC(=O)[C@@H](NC(=O)[C@H](Cc1ccccc1)NC(=O)[C@@H](NC(=O)CNC(=O)[C@H](CCC(N)=O)NC(=O)[C@H](CO)NC(=O)[C@@H](N)Cc1cscn1)[C@@H](C)O)[C@@H](C)O)C(=O)N[C@@H](CCC(=O)O)C(=O)N[C@@H](Cc1c[nH]c2ccccc12)C(=O)N[C@@H](CC(C)C)C(=O)N[C@@H](CC(C)C)C(=O)N[C@@H](C)C(=O)N[C@H](C(=O)NCC(=O)N1CCC[C@H]1C(=O)N[C@@H](CCC(=O)O)C(=O)N[C@@H](CO)C(=O)NCC(=O)N[C@@H](C)C(=O)N1CCC[C@H]1C(=O)N1CCC[C@H]1C(=O)N1CCC[C@H]1C(=O)N[C@@H](CO)C(=O)O)[C@@H](C)O` [SEQ ID NO 6, Tza-SQGTFTSDYSKQLESRRAQEFIEWLLATGPESGAPPPS-OH], the EC50 in data set [1] came to 9.3 nM. Further, in the data set with hepatic glycogenolysis (10 μg/kg s.c.), the “blood glucose excursion compared to 30 μg/kg GCG” value is given as “more powerful blood glucose excursion” and the “time of blood glucose peak after injection” value is on record as 30 min. Moreover, the “time of blood glucose peak after injection” value in the data set with hepatic glycogenolysis (30 μg/kg s.c.) came out at 60 min. Besides, in the data set with hepatic glycogenolysis (10 to 30 μg/kg s.c.), the “effect on blood glucose” value is “dose-dependent increase of blood glucose”. In the data set with blood glucose (s.c. injection, dog), the “effect on blood glucose relative to human glucagon” value is “mimicked the effect of human glucagon on blood glucose”. The “induction of a blood glucose response, SEQ. ID 5 vs. SEQ. ID 6” value with blood glucose (s.c., normoglycemic dogs) is “similarly active”. The solubility at 2 h in data set [2] was over 10000 µg/mL.
